Assay results as given in US7094752B2 (Chiron Corporation, priority 1997, dated 2006).

Experiments:
[1] = target: T1, β1/caveolin/uPAR complexes (Homo sapiens, UniProt Q03405); experiment: Immunoprecipitation of uPAR with β1 / caveolin; format: cell-based; conditions: 100 μM, co-immunoprecipitation
T1 construct: The full length cDNA for the human urokinase receptor; expressed in transfected cells; host or cells: 293 embryonic kidney cells stably expressing GPI-uPAR
Protocol: When triton X 100 (0.2%) insoluble fraction of GPI-uPAR 293 cells is solubilized in polar detergents, immunoprecipitation of β1 clearly co-precipitates uPAR as described in Filardo et al, J. Cell. Biol. 1995, in press: Cells (5×10^6) were cultured overnight, washed twice with microtubule stabilization buffer (0.1M PIPES, pH 6.9, 2M glycerol, 1 mM EDTA, and 1 mM magnesium acetate), and then extracted on ice for 5 minutes in buffer containing 0.2% Triton X 100 and inhibitors (1 mM sodium orthovandate, 1 mM phenylsulfonyl fluoride, […] leupeptin). The insoluble residues were solubolized at 4° C. for 20 minutes in 1× RIPA buffer (150 mM sodium chloride, 50 mM Tris-HCl, pH 7.5, 1% deoxycholate, 0.1% sodium dodecyl sulfate, 1% Triton X-100) supplemented with protease inhibitors. The triton soluble fraction was diluted 1:1 with 2× RIPA buffer. Both fractions were centrifuged for 10 minutes at 6000 rpm, and then precleared by incubation with nonimmune serum and protein A-agarose for 2 hours at 4° C.
Supernatants were transferred to fresh tubes and incubated with antibodies against β1 or caveolin for 2 hours at 4° C. Immune complexes were recovered with protein A-agarose. The washed immunoprecipitates were subjected to 8% SDS-PAGE, and transferred onto a nitrocellulose membrane. […]

nontransfected 293 cells = experiment: Adhesion of nontransfected 293 cells to fibronectin or collagen; format: cell-based
From the text: To explore whether uPAR binds to integrins, nontransfected 293 cells were allowed to adhere to fibronectin or collagen in the presence of recombinant soluble uPAR (suPAR).

soluble uPAR = soluble uPAR (Homo sapiens, UniProt Q03405); format: binding; set-up: sUPAR, soluble truncated form of the urokinase receptor; made in house; host or cells: baculovirus-infected Sf9 insect cells
Protocol: Streptavidin, 100 μl (0.1 mg/ml) in 50 mM Na2CO3, pH 9.6, was added to MaxiSorp wells (Nunc), incubated overnight at 4 C, and then washed with PBS/BSA. Biotinylated sUPAR (25 nM in PBS/BSA) was added to the wells and incubated for 2 hours at room temperature prior to washing. Competitive peptide inhibitors were added to the wells immediately prior to addition of the bacteriophage. The wells were incubated for one hour at room temperature, then washed and bound bacteriophage eluted with 6M urea in 0.1N HCl, pH 2.5. After 15 minutes, the urea eluate was brought to neutral pH by addition of 2M Tris base and the bacteriophage titers of input stocks and elutions measured by plaque formation assay. Results were expressed as the percent of input bacteriophage which bind to the wells. Alternatively, the amount of bacteriophage was determined in an ELISA where phage were preincubated with HRP-conjugated anti-M13 antibody for 30 minutes at room temperature before dispensing into wells prepared as above and incubated for one hour at room temperature. The final anti-M13 conjugate dilution was 1:4000. After washing, TMB substrate (100 μl/well) was added and color development was stopped with 0.8N H2SO4 (100 μl/well). The absorbance at 450 nm was then measured in a 96 well plate reader.
In a uPAR binding assay, the following analogs were tested in a competition with phage displaying either peptide 25 or peptide 9. The analogs comprise both natural and unnatural amino acids.
The analogs were tested in an assay utilizing soluble uPAR, similar to the method described in Example 2. The analogs were tested for their ability to compete with phage displaying either peptide 9 or peptide 25. Analogs 3–61 were tested in competition with peptide 25. Analogs 62–96 were tested in competition with peptide 9. Approximately 10^8 plaque forming units of the phage were used in the assay.
The analogs were tested at a concentration at 40 μM in the uPAR competition assay with phage displaying peptide 25. The results below show which analogs were active.
Analogs 31–61 were tested for their ability to compete with phage displaying peptide 25. The active analogs were tested further at two concentrations, 5 μM and 2.5 μM. These concentrations were calculated based on the synthesis reactions. However, the sequences * were further tested and determined to contain high amounts of amino acids and the quantity tested could have been higher than 5 μM or 2.5 μM.

Chain of soluble uPAR (Q03405 23-305 limits assumed): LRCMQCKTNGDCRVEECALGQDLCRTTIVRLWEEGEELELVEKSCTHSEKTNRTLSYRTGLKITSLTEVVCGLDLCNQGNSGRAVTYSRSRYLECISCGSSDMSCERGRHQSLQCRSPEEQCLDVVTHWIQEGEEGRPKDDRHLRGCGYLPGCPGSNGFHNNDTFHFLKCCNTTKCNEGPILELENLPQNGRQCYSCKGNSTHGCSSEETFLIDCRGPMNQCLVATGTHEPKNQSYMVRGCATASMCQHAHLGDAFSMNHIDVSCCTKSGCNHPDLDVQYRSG
T1 sequence (Q03405 23-305, one chain of several): as the sequence (Q03405 23-305 limits assumed) above

**Q.** What does the source list for H-AESTYHHLSLGYMYTLN-NH2 [peptide 25]?
**A.** disruption of β1/caveolin/uPAR complexes [1]: largely disrupted; reversal of suPAR inhibition of adhesion to fibronectin and collagen (nontransfected 293 cells; 100 μM peptide): reversible; adhesion to fibronectin by nontransfected 293 cells (nontransfected 293 cells; peptide alone): no effect; % Inhibition 2.5 uM (soluble uPAR; 2500.0): 45%; % Inhibition 5 uM (soluble uPAR; 5000.0): 59%
